The values that follow are results of earlier work, collected in patent publication US8865644B2, “Rapamycin formulation using recombinant high-density lipoprotein including apolipoprotein A-I and a mutant thereof” (Industry-Academic Cooperation Foundation, Yeungnam …, priority 2010, dated 2014).

As to `CO[C@H]1C[C@@H]2CC[C@@H](C)[C@@](O)(O2)C(=O)C(=O)N2CCCC[C@H]2C(=O)O[C@H]([C@H](C)C[C@@H]2CC[C@@H](O)[C@H](OC)C2)CC(=O)[C@H](C)/C=C(\C)[C@@H](O)[C@@H](OC)C(=O)[C@H](C)C[C@H](C)/C=C/C=C/C=C/1C` [rapamycin], the “solubility in water, aliphatic hydrocarbon and diethylether” value is “hardly dissolved”.
